Laboratory results as given in patent US7018642B2 (The Procter & Gamble Company, priority 2001, dated 2006).

Key:
Assay type in all cases: cell-based
[1] = tested on: P. aeruginosa strain PAO1; assay: Biofilm prevention screen (96-well microplate, crystal violet); details: Pseudomonas aeruginosa, positive = prevention, negative = enhancement of biofilm formation, quadruplicate, read-out: average percentage reduction of biofilm formed relative to DMSO controls
Outline: (§1)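 Three strains in 96-well round-bottom plates, compound at 250–500 μM, 160 μM or 32 μM, 16–26 h at 200 rpm (30° C Pseudomonas, 37° C staphylococcus). Staining: CV 45 min at room temperature, ethanol extraction, A586. Reported as % biofilm reduction vs DMSO, n = 4.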

[2] = tested on: P. fluorescens strain ATCC 13525; assay: as above; details: Pseudomonas fluorescens, positive = prevention, negative = enhancement of biofilm formation, quadruplicate, read-out: average percentage reduction of biofilm formed relative to DMSO controls; for inhibition at 32 µM: ATCC13525, 32 μM; for inhibition at 160 µM: ATCC13525, 160 μM; for inhibition at 390 µM: ATCC13525, 390 μM
Outline: as §1

[3] = tested on: S. epidermidis strain ATCC 35984; assay: as above; details: Staphylococcus epidermidis, positive = prevention, negative = enhancement of biofilm formation, quadruplicate, read-out: average percentage reduction of biofilm formed relative to DMSO controls; for inhibition at 32 µM: ATCC35984, 32 μM; for inhibition at 160 µM: ATCC35984, 160 μM; for inhibition at 390 µM: ATCC35984, 390 μM
Outline: as §1

[4] = tested on: P. aeruginosa strain PAO1; assay: Improved biofilm dispersion screen (already-formed biofilms, crystal violet); details: Pseudomonas aeruginosa, 30 mM NaOH step, positive = dispersion, negative = enhancement of pre-existing biofilm, quadruplicate, read-out: average percentage reduction of biofilm relative to the two control values (dispersion)
Outline: (§2)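 Biofilms pre-grown 24 h without compound, then given fresh medium with compound at 390 μM for another 22–26 h. NaOH wash in PBS (0 mM S. epidermidis, 20 mM P. fluorescens, 30 mM P. aeruginosa; 30 min, room temperature), then crystal violet staining. Percent biofilm reduction calculated against t0 and DMSO t24 controls, quadruplicates; negative values mean enhancement.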

[5] = tested on: P. fluorescens strain ATCC 13525; assay: as above; details: Pseudomonas fluorescens, ATCC13525, 20 mM NaOH step, positive = dispersion, negative = enhancement of pre-existing biofilm, quadruplicate, read-out: average percentage reduction of biofilm relative to the two control values (dispersion)
Outline: as §2

[6] = tested on: S. epidermidis strain ATCC 35984; assay: as above; details: Staphylococcus epidermidis, ATCC35984, no NaOH, positive = dispersion, negative = enhancement of pre-existing biofilm, quadruplicate, read-out: average percentage reduction of biofilm relative to the two control values (dispersion)
Outline: as §2

| SMILES | inhibition at 32 µM [1] [%] | inhibition at 160 µM [1] [%] | inhibition at 390 µM [1] [%] | inhibition at 32 µM [2] [%] | inhibition at 160 µM [2] [%] | inhibition at 390 µM [2] [%] | inhibition at 32 µM [3] [%] | inhibition at 160 µM [3] [%] | inhibition at 390 µM [3] [%] | inhibition at 390 µM [4] [%] | inhibition at 390 µM [5] [%] | inhibition at 390 µM [6] [%] |
| --- | --- | --- | --- | --- | --- | --- | --- | --- | --- | --- | --- | --- |
| CCCCCCCCNC(=O)[C@H]1CCCCN1C(=O)CCCCCCC [Compound 28, 1-Octanoyl-(R)-(+)-2-piperidinecarboxylic acid n-octyl amide] | 0 | -3 | -9 | 21 | 38 | 26 | -5 | -44 | -51 | -25 | 10 | -8 |
| CCCCCCNC(=O)[C@@H]1CCN1C(=O)OC(C)(C)C [Compound 283] | -7 | -10 | 0 | 3 | -1 | 13 | -3 | -10 | -23 | -11 | 0 | -11 |
| CCCCCCCCNC(=O)[C@@H]1CCCN1C(=O)OC(C)(C)C [Compound 11] | -6 | -18 | -15 | -4 | -6 | -26 | 10 | -60 | 37 | -56 | -23 | 0 |
| CCCCCCCCCCCCNC(=O)[C@@H]1CCN1 [Compound 290] | 6 | -16 | 37 | -12 | 98 | 93 | 101 | 100 | 97 | -72 | 21 | 82 |
| CCCCCCCCNC(=O)[C@@H]1CCCN1 [Compound 31] | -37 | -125 | -44 | 3 | 5 | 52 | -7 | -1 | -27 | 21 | 32 | -11 |
| CCCCCCCCNC(=O)[C@@H]1CCCCN1C(C)=O [Compound 21] | -6 | -12 | -11 | 2 | 4 | 20 | -15 | -23 | -24 | -39 | -16 | -8 |
| CCCCCCCCNC(=O)[C@@H]1CCN1C(=O)OC(C)(C)C [Compound 284] | 2 | -10 | -12 | 4 | 21 | -2 | -4 | -33 | 56 | -79 | -15 | 0 |
| CCCCCCCCCCNC(=O)[C@H]1CCCN1C(=O)OC(C)(C)C [Compound 158] | 1 | -34 | -40 | 3 | -11 | -40 | -10 | 52 | 54 | -53 | -79 | 0 |
| CCCCCCCCNC(=O)[C@H]1CCCN1C(=O)OC(C)(C)C [Compound 154] | -1 | -9 | -15 | 4 | 10 | 11 | -16 | -42 | 52 | -63 | 10 | 0 |
| CCCCCCCCCCNC(=O)[C@@H]1CCN1 [Compound 289, (S)-(−)-2-azetidinecarboxylic acid n-decyl amide] | 9 | -2 | 77 | -8 | 45 | 99 | 39 | 101 | 101 | -54 | 19 | 84 |
